{"source": "paper PMC7495477", "about": "“IMPROvER: the Integral Membrane Protein Stability Selector” (Scientific Reports, 2020)", "target": "T1, ClPPase (membrane-bound pyrophosphatase from Clostridium leptum) ([Clostridium] leptum, UniProt A7VNH8)", "T1 construct": "gene hppA; N-terminal 8xHis-tag, superfolder GFP and TEV site kept; synthetic gene in pDDGFP; expressed in S. cerevisiae FGY217 membranes; about 700 residues; dimer", "T1 sequence (A7VNH8 1-700)": "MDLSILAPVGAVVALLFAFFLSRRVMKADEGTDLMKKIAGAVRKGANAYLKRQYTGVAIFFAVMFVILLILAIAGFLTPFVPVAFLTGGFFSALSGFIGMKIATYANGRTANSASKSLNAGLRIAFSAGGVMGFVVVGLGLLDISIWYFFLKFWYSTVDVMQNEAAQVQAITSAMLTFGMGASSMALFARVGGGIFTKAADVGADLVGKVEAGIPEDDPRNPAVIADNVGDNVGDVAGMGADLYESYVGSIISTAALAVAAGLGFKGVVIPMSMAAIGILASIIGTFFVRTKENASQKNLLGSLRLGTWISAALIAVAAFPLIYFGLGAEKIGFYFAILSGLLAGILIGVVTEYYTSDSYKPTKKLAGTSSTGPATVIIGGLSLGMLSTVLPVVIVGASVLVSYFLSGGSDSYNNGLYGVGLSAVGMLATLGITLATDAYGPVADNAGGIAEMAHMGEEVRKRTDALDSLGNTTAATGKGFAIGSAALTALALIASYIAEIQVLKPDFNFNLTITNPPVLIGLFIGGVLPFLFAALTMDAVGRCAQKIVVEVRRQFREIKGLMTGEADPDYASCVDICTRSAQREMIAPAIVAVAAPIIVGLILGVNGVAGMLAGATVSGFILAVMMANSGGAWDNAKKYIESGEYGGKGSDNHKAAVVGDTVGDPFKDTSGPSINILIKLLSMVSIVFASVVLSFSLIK", "assay": "colorimetric phosphate release assay on yeast membranes", "assay_type": "biochemical", "conditions": "tris-HCl pH 8, MgCl2, KCl, NaCl, NaF, gramicidin, 10 uL of 2 mM tetrabasic sodium pyrophosphate in 50 uL, 30 C, 10 min", "data": [{"smiles": "O=P(O)(O)OP(=O)(O)O", "note": "[PPi]", "values": [{"measurement": "colorimetric phosphate release assay on yeast membranes", "value": "The hydrolytic activity of wild-type and variant ClPPase in the membrane was assessed"}]}]}
